From patent US6858625B1, “Quinolinecarboxylic acid derivative or salts thereof” (Wakunaga Pharmaceutical Co., Ltd., priority 1999, dated 2005)
Converted amounts (≈) assume the structure as drawn.

Key:
S. aureus 209P = assay: Minimum growth inhibitory concentration (MIC), standard method of the Japan Society of Chemotherapy; type: cell-based; conditions: Staphylococcus aureus
Description: (§1) Their minimum growth inhibitory concentrations (MICs: μg/mL) were determined in accordance with the standard method of the Japan Society of Chemotherapy [Chemotherapy, 29(1), 76 (1981)].

B. subtilis ATCC6633 = assay: as above; type: cell-based; conditions: Bacillus subtilis
Description: as §1

P. vulgaris IFO3167 = assay: as above; type: cell-based; conditions: Proteus vulgaris
Description: as §1

K. pneumoniae KC-1 = assay: as above; type: cell-based; conditions: Klebsiella pneumoniae, KC1
Description: as §1

S. epidermidis IFO12293 = assay: as above; type: cell-based; conditions: Staphylococcus epidermidis
Description: as §1

P. aeruginosa IFO3445 = assay: as above; type: cell-based; conditions: Pseudomonas aeruginosa
Description: as §1

MRSA W200 = assay: as above; type: cell-based; conditions: Staphylococcus aureus
Description: as §1

S. marcescens IFO3736 = assay: as above; type: cell-based; conditions: Serratia marcescens
Description: as §1

M. luteus IFO12708 = assay: as above; type: cell-based; conditions: Micrococcus luteus
Description: as §1

E. coli NIHJ-JC2 = assay: as above; type: cell-based; conditions: Escherichia coli, NIHJJC2
Description: as §1

E. faecalis IFO12580 = assay: as above; type: cell-based; conditions: Enterococcus faecalis
Description: as §1

P. aeruginosa E-2 = assay: as above; type: cell-based; conditions: Pseudomonas aeruginosa, E2
Description: as §1

[1] = In vivo pharmacokinetic study (absorption and excretion in dogs); parameters: species or system beagles; conditions: for AUC(0-t) / Cmax / Tmax / half-life / Urinary excretion rate: male beagles, per os; for AUC(0-t) / Cmax / Tmax / half-life: 10 mg/mL/kg in 0.5% methyl cellulose; for Urinary excretion rate: 10 mg/mL/kg, urine up to 24th hour
Description: An investigation was made on the absorption and excretion of the compounds of the present invention in and from dogs. A 0.5% suspension of one of the test compounds in methyl cellulose (10 mg/mL/kg) was forcedly administered per os to 2-4 years old, male beagles fasted for 16 to 17 hours. After the administration, blood samples were collected on the 0.25th, 0.5th, 1st, 2nd, 4th, 6th, 8th and 24th hours, and serum samples were obtained. To determine urinary excretion rates, urine samples were also collected up to 24th hour after the administration. The concentrations of the test compound in the serum samples and urine samples were measured by the paper disk method making use of Bacillus subtilis ATCC6633 as a test bacterium, and the absorption and excretion were ranked.

[2] = Phototoxicity test (ear abnormality after UV exposure); type: in vivo, ICR mice; conditions: 40 mg/kg i.v., 4 h UV 320-400 nm; for Ear abnormality (point): 0 = no abnormality to 3 = severe erythema or edema; for Ear abnormality (frequency): affected/total mice
Description: A phototoxicity test was performed by the following procedure. Female ICR mice (5 to 6 weeks old) were intravenously administered with the test compounds (40 mg/kg/10 mL), respectively, and were exposed for 4 hours to ultraviolet rays (320 to 400 nm, 1.8 mW/cm^2/sec). […] Ear abnormality was ranked by the following standards: no abnormality (0 point), mild erythema (1 point), medium erythema (2 points), and severe erythema or edema (3 points) The results are presented in Table 2.

[3] = test system: Isolated coccus 5 (clinically-isolated quinolone resistant pneumococci); assay: MIC against clinically-isolated quinolone resistant pneumococci, agar plates with 5% defibrinated sheep blood; type: cell-based; conditions: Isolated coccus 5, quinolone resistant pneumococcus
Description: (§2) Using agar plates added with 5% defibrinated sheep blood, minimum growth inhibition concentrations (MICs; μg/mL) against certain pneumococci were determined in accordance with the standard method of the Japan Society of Chemotherapy [Chemotherapy, 29(1), 76 (1981)].

[4] = test system: Isolated coccus 1 (clinically-isolated quinolone resistant pneumococci); assay: as above; type: cell-based; conditions: Isolated coccus 1, quinolone resistant pneumococcus
Description: as §2

[5] = beagle, dog, po, 10 mg/kg, serum

Compound	MIC (S. aureus 209P) [µg/mL]	MIC (B. subtilis ATCC6633) [µg/mL]	MIC (P. vulgaris IFO3167) [µg/mL]	MIC (K. pneumoniae KC-1) [µg/mL]	MIC (S. epidermidis IFO12293) [µg/mL]	MIC (P. aeruginosa IFO3445) [µg/mL]	MIC (MRSA W200) [µg/mL]	MIC (S. marcescens IFO3736) [µg/mL]	MIC (M. luteus IFO12708) [µg/mL]	MIC (E. coli NIHJ-JC2) [µg/mL]	MIC (E. faecalis IFO12580) [µg/mL]	MIC (P. aeruginosa E-2) [µg/mL]	AUC(0-t) [1, 5] [ng·h/mL]	Cmax [1, 5] [ng/mL]	Tmax [1, 5] [h]	half-life [1, 5] [h]	Urinary excretion rate [1] [%]	Ear abnormality (point) ([2]; 0 hour after exposure)	Ear abnormality (frequency) ([2]; 0 hour after exposure)	Ear abnormality (point) ([2]; 24 hours after exposure)	also measured
O=C(O)c1cn(C2CC2)c2cc(N3CCNCC3)c(F)cc2c1=O [CPFX, 1-cyclopropyl-6-fluoro-7-(1-piperadinyl)-1,4-dihydro-4-oxoquinoline-3-carboxylic acid]	0.2 (≈ 0.604 µM)	0.05 (≈ 0.151 µM)	0.05 (≈ 0.151 µM)	0.05 (≈ 0.151 µM)	1.56 (≈ 4.71 µM)	0.39 (≈ 1.18 µM)	0.78 (≈ 2.35 µM)	0.2 (≈ 0.604 µM)	3.13 (≈ 9.45 µM)	0.025 (≈ 0.0754 µM)	1.56 (≈ 4.71 µM)	0.78 (≈ 2.35 µM)									
CNC1CN(c2c(F)cc3c(=O)c(C(=O)O)cn(-c4nc(N)c(F)cc4F)c3c2Br)C1 [Comparative Compound 1, 1-(6-amino-3,5-difluoropyridin-2-yl)-8-bromo-7-(3-methylaminoazetidin-1-yl)-6-fluoro-4-oxo-1,4-dihydroquinoline-3-carboxylic acid]	0.013 (≈ 0.0261 µM)	0.05 (≈ 0.1 µM)	0.1 (≈ 0.201 µM)	0.025 (≈ 0.0502 µM)	0.05 (≈ 0.1 µM)	0.39 (≈ 0.783 µM)	0.025 (≈ 0.0502 µM)	1.56 (≈ 3.13 µM)	0.39 (≈ 0.783 µM)	0.013 (≈ 0.0261 µM)	0.39 (≈ 0.783 µM)	0.78 (≈ 1.57 µM)	8540	2350	0.5	2	14.8	0	0/3	0	Ear abnormality (frequency) ([2]; 24 hours after exposure): 0/3; Ear abnormality (point) ([2]; 48 hours after exposure): 0 point; Ear abnormality (frequency) ([2]; 48 hours after exposure): 0/3; MIC [3]: 0.5 µg/mL (≈ 1 µM); MIC [4]: 0.06 µg/mL (≈ 0.12 µM)
CCNC1CN(c2c(F)cc3c(=O)c(C(=O)O)cn(-c4nc(N)c(F)cc4F)c3c2Cl)C1 [Comparative Compound 2, 1-(6-amino-3,5-difluoro-pyridin-2-yl)-8-chloro-7-(3-ethylaminoazetidin-1-yl)-6-fluoro-4-oxo-1,4-dihydroquinoline-3-carboxylic acid]	0.013 (≈ 0.0278 µM)	0.025 (≈ 0.0534 µM)	0.2 (≈ 0.428 µM)	0.05 (≈ 0.107 µM)	0.05 (≈ 0.107 µM)	0.39 (≈ 0.834 µM)	0.025 (≈ 0.0534 µM)	1.56 (≈ 3.33 µM)	0.78 (≈ 1.67 µM)	0.025 (≈ 0.0534 µM)	0.78 (≈ 1.67 µM)	1.56 (≈ 3.33 µM)						0.7	2/3	0	Ear abnormality (frequency) ([2]; 24 hours after exposure): 0/3; Ear abnormality (point) ([2]; 48 hours after exposure): 0 point; Ear abnormality (frequency) ([2]; 48 hours after exposure): 0/3
CCNC1CN(c2c(F)cc3c(=O)c(C(=O)O)cn(-c4nc(N)c(F)cc4F)c3c2Br)C1 [Compound 1, 1-(6-amino-3,5-difluoropyridin-2-yl)-8-bromo-7-(3-ethylaminoazetidin-1-yl)-6-fluoro-4-oxo-1,4-dihydroquinoline-3-carboxylic acid]	0.013 (≈ 0.0254 µM)	0.025 (≈ 0.0488 µM)	0.1 (≈ 0.195 µM)	0.05 (≈ 0.0976 µM)	0.025 (≈ 0.0488 µM)	0.78 (≈ 1.52 µM)	0.013 (≈ 0.0254 µM)	1.56 (≈ 3.05 µM)	0.39 (≈ 0.761 µM)	0.025 (≈ 0.0488 µM)	0.39 (≈ 0.761 µM)	1.56 (≈ 3.05 µM)	22800	4820	1	3.8	19.8	0	0/3	0	bioavailability ([1]; male, beagle, dog, serum, po, 10 mg/kg, administered orally, calculated from an AUC up to 24th hour after administration): 78%; Ear abnormality (frequency) ([2]; 24 hours after exposure): 0/3; Ear abnormality (point) ([2]; 48 hours after exposure): 0 point; Ear abnormality (frequency) ([2]; 48 hours after exposure): 0/3; MIC [3]: 0.12 µg/mL (≈ 0.234 µM); MIC [4]: 0.03 µg/mL (≈ 0.0586 µM)
CCNC1CN(c2c(F)cc3c(=O)c(C(=O)O)cn(-c4nc(N)c(F)cc4F)c3c2Br)C1.O=C(O)/C=C\C(=O)O [Compound 2, 1-(6-amino-3,5-difluoropyridin-2-yl)-8-bromo-7-(3-ethylaminoazetidin-1-yl)-6-fluoro-4-oxo-1,4-dihydroquino line-3-carboxylic acid maleate]													17600	3730	1	4.8	17.4				
C[C@H]1COc2c(N3CCN(C)CC3)c(F)cc3c(=O)c(C(=O)O)cn1c23 [LVFX, S(−)-9-fluoro-2,3-dihydro-3-methyl-10-(4-methyl-1-piperazinyl)-7-oxo-7H-pyrido[1,2,3-de][1,4]benzoxazine-6-carboxylic acid]	0.2 (≈ 0.553 µM)	0.1 (≈ 0.277 µM)	0.05 (≈ 0.138 µM)	0.1 (≈ 0.277 µM)	0.78 (≈ 2.16 µM)	0.78 (≈ 2.16 µM)	0.39 (≈ 1.08 µM)	0.78 (≈ 2.16 µM)	0.78 (≈ 2.16 µM)	0.05 (≈ 0.138 µM)	1.56 (≈ 4.32 µM)	1.56 (≈ 4.32 µM)									MIC [3]: 32 µg/mL (≈ 88.6 µM); MIC [4]: 2 µg/mL (≈ 5.53 µM)
